# Source: paper PMC11714206, “Massively Parallel Screening of Toll/Interleukin‐1 Receptor (TIR)‐Derived Peptides Reveals Multiple Toll‐Like Receptors (TLRs)‐Targeting Immunomodulatory Peptides” (Advanced Science, 2024)
# Several values for one entry are separate records, joined by “and”; a condition that tells them apart may be missing. Equal values may be shown once.
# Molecular target: T1, MyD88^TIR (Homo sapiens, UniProt Q99836)
# T1 construct: MyD88 (residues 148–296); 6xHis; made in house; host or cells: E. coli BL21 (DE3)
# Assay: T‐Surf phage library (P8 and P3) selection against MyD88^TIR, four rounds, NGS read counts
# Format: binding
# Conditions: for P3_MyD88 Rank (after) / P3_MyD88 Rank (before): P3 library; for Population: 4th round of selection against MyD88 TIR, share of NGS reads; for P8_MyD88 Rank (after) / P8_MyD88 Rank (before): P8 library
# In short: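 Four panning rounds on TIR domain adsorbed at 5 µg mL^−1; binding 1 h at 20–22 °C, elution with 100 mM HCl. Output: NGS read counts of round‐4 pools versus naïve library.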
# [1] = selection against MyD88, rank after grouping
# [2] = selection against MyD88, rank before grouping
# [3] = P8_MyD88: rank by NGS read count after grouping
# [4] = P8_MyD88: rank by NGS read count before grouping
# [5] = 4R selection against MyD88, rank after grouping
# [6] = 4R selection against MyD88, rank before grouping
# [7] = P8_MyD88: rank by count after grouping
# [8] = P8_MyD88: rank by count before grouping
# [9] = P8_MyD88 pool: P8 T-Surf phage library
# [10] = selection against MyD88, rank by count after grouping
# [11] = selection against MyD88, rank by count before grouping
# [12] = selection against MyD88 TIR, rank by count after grouping
# [13] = selection against MyD88 TIR, rank by count before grouping
# [14] = P3_MyD88: rank by count after grouping
# [15] = P3_MyD88: rank by count before grouping
# [16] = P3_MyD88 pool: P3 T-Surf phage library
# T1 sequence (Q99836 148-296): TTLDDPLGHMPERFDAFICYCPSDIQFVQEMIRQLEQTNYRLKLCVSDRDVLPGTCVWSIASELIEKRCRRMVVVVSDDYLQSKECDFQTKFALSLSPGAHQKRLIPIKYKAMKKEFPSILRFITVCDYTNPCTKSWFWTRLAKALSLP
sequence,measurement,setting,value
PSEVRKQTGSLAKALCD,P3_MyD88 Rank (after),[1],488
same,P3_MyD88 Rank (before),[2],2753
DPQVPEWFYNRLFCQL,Rank (after),[3],959
same,Rank (before),[4],2651
SENYATSPWALMNWC,P3_MyD88 Rank (after),[5],655
same,P3_MyD88 Rank (before),[6],2985
QWALEELRLIMELHSV,Rank (after),[7],158
same,Rank (before),[8],175
same,Population,[9],0.00809%
YASRSWYLDELVHIPW,Rank (after),[3],1022
same,Rank (before),[4],1842
PRDLEWFYEHLVSLIL,P8_MyD88 Rank (after),[10],736
same,P8_MyD88 Rank (before),[11],3409
NYTSSSWALDEQWNIF,P8_MyD88 Rank (after),[5],653
same,P8_MyD88 Rank (before),[6],3860
SSCREGLWSLLELSKK,P3_MyD88 Rank (after),[1],565
same,P3_MyD88 Rank (before),[2],3262
DYASSWWALEEMAKIM,Rank (after),[7],177
same,Rank (before),[8],202
WALDELLKILYARELF,P8_MyD88 Rank (after),[12],222
same,P8_MyD88 Rank (before),[13],518
ELDFSHFWLFDGQATGEA,Rank (after),[7],120
same,Rank (before),[8],174
same,Population,[9],0.00809%
VSHLSDSFERYGIMFF,P8_MyD88 Rank (after),[10],731
same,P8_MyD88 Rank (before),[11],2266
LKWEGPYFWRKMRYAL,Rank (after),[14],477
same,Rank (before),[15],2457
WALDGLLKILHARELF,Rank (after),[7],409
same,Rank (before),[8],1413
WALNELLKILHARELF,Rank (after),[7],414
same,Rank (before),[8],1546
PEKDNGGENALSITL,P3_MyD88 Rank (after),[12],218
same,P3_MyD88 Rank (before),[13],1121
YAFTGHLRKQSGEFG,P3_MyD88 Rank (after),[1],486
same,P3_MyD88 Rank (before),[2],1491
WALDELLQILHPRELV,Rank (after),[3],981
same,Rank (before),[4],1460
DPQDLEWFYERLVSRF,P8_MyD88 Rank (after),[12],266
same,P8_MyD88 Rank (before),[13],2851
MEANSSRIWHRLLYSV,P8_MyD88 Rank (after),[10],769
same,P8_MyD88 Rank (before),[11],3687
WFWQSLRNTIIMDNQA,P8_MyD88 Rank (after),[5],605
same,P8_MyD88 Rank (before),[6],1355
ELDFSHFWLFDAGGDAAI,Rank (after),[3],956
same,Rank (before),[4],3183
LKWGDPYFCSKLRYPM,Rank (after),[14],403
same,Rank (before),[15],2415
NDLVHGWSSKANSLVG,Rank (after),[14],136
same,Rank (before),[15],3388
SSFRERLWRPVALSKK,P3_MyD88 Rank (after),[1],493
same,P3_MyD88 Rank (before),[2],3227
NYGSNSWALNELLEIL,Population,[9],0.00848%
DPQDLDWFYERLVSLFL,Population,[9],0.02%
LGYRWGDWEYFVGIEE,Rank (after),[3],1017
same,Rank (before),[4],3222
YAFTGHLHRYLVQRL,Rank (after),[14],134
same,Rank (before),[15],834
YSFTGQLHRYMVQRGV,P3_MyD88 Rank (after),[5],649
same,P3_MyD88 Rank (before),[6],1434
DYASNTFLLRELLQIA,P8_MyD88 Rank (after),[10],746
same,P8_MyD88 Rank (before),[11],2543
EDTLIRLLVQRIMKEL,Rank (after),[7],173
same,Rank (before),[8],198
YTARTNSGFHTFLDND,P3_MyD88 Rank (after),[12],225
same,P3_MyD88 Rank (before),[13],1708
DHHLDLPRGKRLNRKFW,Rank (after),[14],153
same,Rank (before),[15],944
LGYHGIDWVYFGGIED,P8_MyD88 Rank (after),[1],565
same,P8_MyD88 Rank (before),[2],3316
YYLDPSHLRKQTGSLAKAFA,P3_MyD88 Rank (after),[12],224
same,P3_MyD88 Rank (before),[13],1463
MFGGDSFHDFLELISM,Rank (after),[7],391
same,Rank (before),[8],3656
WRTALTKVGNMLGWIS,Rank (after),[7],430
same,Rank (before),[8],897
DPQDLVWFYERLVSIV,Rank (after),[3],986
same,Rank (before),[4],2713
LGFNWMDWEYFVGIEG,P8_MyD88 Rank (after),[5],671
same,P8_MyD88 Rank (before),[6],3216
LGYHWVDWEYCVGIED,Rank (after),[7],479
same,Rank (before),[8],3233
DPQDLDLFYERLVRLF,P8_MyD88 Rank (after),[12],261
same,P8_MyD88 Rank (before),[13],2737
DHHLDLPRGKAIKPEILS,Population,[16],0.0032%
LEANDSLFWDRLIRMIE,P8_MyD88 Rank (after),[5],635
same,P8_MyD88 Rank (before),[6],3374
LGYPWIDWEYYVGIED,P8_MyD88 Rank (after),[1],519
same,P8_MyD88 Rank (before),[2],3226
DLQDLDWFYERLVSLL,P8_MyD88 Rank (after),[12],206
same,P8_MyD88 Rank (before),[13],2595
KFFLFFMILAFSMNR,P8_MyD88 Rank (after),[1],487
same,P8_MyD88 Rank (before),[2],3892
PQDLEWFYERLFSQM,Rank (after),[7],96
same,Rank (before),[8],102
same,Population,[9],0.0227%
SSFREGLWRLLELSKR,Population,[16],0.00291%
NQWRSSPTAWASLSFA,P3_MyD88 Rank (after),[1],530
same,P3_MyD88 Rank (before),[2],3474
YLKWGYPRFWDRQRFP,P3_MyD88 Rank (after),[12],282
same,P3_MyD88 Rank (before),[13],1431
KDVEGWRDALTKVASL,Population,[16],0.00349%
LKVEAGVRRWKKRAN,Rank (after),[14],114
same,Rank (before),[15],1074
DHHLDLSRGKAIKPAILG,P3_MyD88 Rank (after),[12],236
same,P3_MyD88 Rank (before),[13],1997
WLLDQLDKILEAHGTT,P8_MyD88 Rank (after),[10],693
same,P8_MyD88 Rank (before),[11],1380
LVYHWIDWVYFVGIED,P8_MyD88 Rank (after),[5],659
same,P8_MyD88 Rank (before),[6],3211
AVAHEISNKMKIFATI,P3_MyD88 Rank (after),[12],270
same,P3_MyD88 Rank (before),[13],1888
DTKLKKGESIAPALMR,P3_MyD88 Rank (after),[10],704
same,P3_MyD88 Rank (before),[11],2101
WKEALTYVSLLVGFPF,P8_MyD88 Rank (after),[12],224
same,P8_MyD88 Rank (before),[13],380
DYASSSWALDVLWNIF,Rank (after),[3],950
same,Rank (before),[4],2507
ESILNHMRRSSQSIAN,Rank (after),[14],481
same,Rank (before),[15],2231
MDYLLRILHSSNFTTF,Rank (after),[7],102
same,Rank (before),[8],105
same,Population,[9],0.022%
AWVGDYLLPNLEGPAG,P8_MyD88 Rank (after),[5],672
same,P8_MyD88 Rank (before),[6],2318
SSFREGPWRLLALSKK,P3_MyD88 Rank (after),[1],509
same,P3_MyD88 Rank (before),[2],3216
YTALTNSSFHTFLDND,P3_MyD88 Rank (after),[12],219
same,P3_MyD88 Rank (before),[13],1696
DPQDLECVYERLVSLF,Rank (after),[3],1006
same,Rank (before),[4],2846
YFRNESEFIQEIVQWV,Rank (after),[7],118
same,Rank (before),[8],125
same,Population,[9],0.0162%
DHHLALPRGKASKPEHLG,P3_MyD88 Rank (after),[1],525
same,P3_MyD88 Rank (before),[2],1994
RFWESQRYMKPNVSHT,P3_MyD88 Rank (after),[10],708
same,P3_MyD88 Rank (before),[11],2552
WDFASNMAQSWDRLYY,P8_MyD88 Rank (after),[12],246
same,P8_MyD88 Rank (before),[13],1595
WALDELLKILCANKTM,P8_MyD88 Rank (after),[10],766
same,P8_MyD88 Rank (before),[11],1477
DPQALDWLYERLVSLF,P8_MyD88 Rank (after),[12],203
same,P8_MyD88 Rank (before),[13],2685
LSRVPSVHDFRGFATI,Rank (after),[14],111
same,Rank (before),[15],682
DHHLDLPWGKAKKPEILG,P3_MyD88 Rank (after),[1],487
same,P3_MyD88 Rank (before),[2],1999
DPQTLQSFYERLVSLI,P8_MyD88 Rank (after),[1],557
same,P8_MyD88 Rank (before),[2],3027
DYASSSWYLDELVHILW,P8_MyD88 Rank (after),[12],262
same,P8_MyD88 Rank (before),[13],693
SSFREGLWSLLELSKN,Rank (after),[14],183
same,Rank (before),[15],3200
DPQELDWFYERLVSLF,Population,[9],0.02% and 0.0158%
PQDLEWFYERGEPDS,P8_MyD88 Rank (after),[10],751
same,P8_MyD88 Rank (before),[11],3445
YAASPRLFGEPVKIVG,P8_MyD88 Rank (after),[1],497
same,P8_MyD88 Rank (before),[2],1755
DVLYWALTEAGLRGFR,P8_MyD88 Rank (after),[1],578
same,P8_MyD88 Rank (before),[2],2557
NYGSSSWALEELAHIIE,P8_MyD88 Rank (after),[5],665
same,P8_MyD88 Rank (before),[6],3831
PQDRERFFERLFSLF,Rank (after),[3],998
same,Rank (before),[4],3490
DLVWDYLLPNLAGPAG,Rank (after),[3],967
same,Rank (before),[4],2386
YLLLSEFHSELALRPL,P8_MyD88 Rank (after),[5],637
same,P8_MyD88 Rank (before),[6],2016
LGYHCHDREYFVGIED,P8_MyD88 Rank (after),[10],717
same,P8_MyD88 Rank (before),[11],3311
ELDFSHFWLFDAGGEA,Population,[9],0.0154%
LGYHGLIGSILWALK,P8_MyD88 Rank (after),[5],618
same,P8_MyD88 Rank (before),[6],3317
DFLNWFYERLVSLFL,P8_MyD88 Rank (after),[5],622
same,P8_MyD88 Rank (before),[6],2352
YLKWGYPRFWDRLRFV,P3_MyD88 Rank (after),[10],729
same,P3_MyD88 Rank (before),[11],1603
YASSSWYLDELVRSLW,Rank (after),[3],897
same,Rank (before),[4],1860
YYFTDWDSEAEIIQKM,Rank (after),[7],112
same,Rank (before),[8],118
same,Population,[9],0.02%
VANILGCHWIDWECFV,Rank (after),[7],464
same,Rank (before),[8],2165
DSQDLDWLYERLVSLL,P8_MyD88 Rank (after),[5],621
same,P8_MyD88 Rank (before),[6],2497
DPQELEGVYERLVSLF,Rank (after),[7],405
same,Rank (before),[8],2994
YLKVESWRQALEKAGKL,P3_MyD88 Rank (after),[12],268
same,P3_MyD88 Rank (before),[13],864
DPQDLEWFYERLGSLF,P8_MyD88 Rank (after),[12],247
same,P8_MyD88 Rank (before),[13],2852
YPQDLQWLYERLGSLI,Rank (after),[3],892
same,Rank (before),[4],2104
DWVWVYLLPNLEGPEG,P8_MyD88 Rank (after),[5],641
same,P8_MyD88 Rank (before),[6],2402
